Broadly, the IC50 is the point on the concentration scale where inhibition reaches its midpoint.

Experiment [1] addresses T1, KDR tyrosine kinase (Homo sapiens, UniProt P35968).
T1 construct: encoding most of the cytoplasmic domain, commencing with methionine 806 and including the termination codon; made in house; host or cells: Sf9 insect cells (baculovirus)
In words: In vitro enzyme assay (ELISA), KDR. It is filed as biochemical. The note with it: Test (a); ATP 8 μM; read-out: IC50 versus KDR tyrosine kinase. Here is the method: (§1) (a) In Vitro Enzyme Assays
(§2) The ability of test compounds to inhibit the phosphorylation of a tyrosine containing polypeptide substrate by the tyrosine kinase enzymes PDGFRα, PDGFRβ and KDR was assessed using conventional ELISA assays.
(§3) DNA encoding the PDGFRα, PDGFRβ or KDR receptor cytoplasmic domains may be obtained by total gene synthesis (International Biotechnology Lab., 1987, 5(3), 19-25) or by cloning. The DNA fragments may be expressed in a suitable expression system to obtain polypeptide with tyrosine kinase activity. For example, PDGFRα, PDGFRβ and KDR receptor cytoplasmic domains, obtained by expression of recombinant protein in insect cells, can be shown to display intrinsic tyrosine kinase activity. In the case of the VEGF receptor KDR (Genbank Accession No. L04947), a DNA fragment encoding most of the cytoplasmic domain, commencing with methionine 806 and including the termination codon may be cloned into a baculovirus transplacement vector [for example pAcYM1 (see The Baculovirus Expression System: A Laboratory Guide, L. A. King and R. D. Possee, Chapman and Hall, 1992) or pAc360 or pBlueBacHis (available from Invitrogen Corporation)]. This recombinant construct may be co-transfected into insect cells [for example Spodoptera frugiperda 21 (Sf21) or Spodoptera frugiperda 9 (Sf9)] with viral DNA (for example Pharmingen BaculoGold) to prepare recombinant baculovirus. Details of the methods for the assembly of recombinant DNA molecules and the preparation and use of recombinant baculovirus can be found in standard texts, for example Sambrook et al., 1989, Molecular cloning—A Laboratory Manual, 2nd edition, Cold Spring Harbour Laboratory Press and O'Reilly et al., 1992, Baculovirus Expression Vectors—A Laboratory Manual, W.H. Freeman and Co, New York).
For expression, Sf9 cells were infected with plaque-pure KDR recombinant virus and harvested 48 hours later. […]
(In general: An ELISA detects its analyte on a solid surface through an enzyme-linked reagent.)

Experiment [2] concerns the target T2, PDGFRα tyrosine kinase (Homo sapiens, UniProt P16234).
T2 construct: PDGFRα, PDGFRβ and KDR receptor cytoplasmic domains, obtained by expression of recombinant protein in insect cells; purchased Upstate Biotechnology Inc. 14-467; host or cells: Sf9 insect cells
Nature of the experiment: In vitro enzyme assay (ELISA), PDGFRα. The format is biochemical. The note with it: Test (a); ATP 14 μM; read-out: IC50 versus PDGFRα tyrosine kinase. Here is the method:
as §1, §2
as §3, with “York). […]” for “York).”

In experiment [3] the target is T3, PDGFRβ tyrosine kinase (Homo sapiens, UniProt P09619).
T3 construct: PDGFRα, PDGFRβ and KDR receptor cytoplasmic domains, obtained by expression of recombinant protein in insect cells; purchased Upstate Biotechnology Inc. 14-463; host or cells: Sf9 insect cells
Nature of the experiment: In vitro enzyme assay (ELISA), PDGFRβ. The format is biochemical. The following applies: Test (a); ATP 2.8 μM; read-out: IC50 versus PDGFRβ tyrosine kinase. Here is the method: as §1, §2
as §3, with “York). […]” for “York).”

The target in experiment [4] is T4, phospho-Tyr751 PDGFRβ (Homo sapiens, UniProt P09619).
T4 construct: phosphorylation of PDGFR expressed on MG63 osteosarcoma cells; endogenous in cells; host or cells: MG63 osteosarcoma cells
Nature of the experiment: In vitro phospho-Tyr751 PDGFRβ ELISA assay. The format is cell-based. The note with it: Test (b); MG63 osteosarcoma cells stimulated with PDGFBB; read-out: IC50 versus phospho-Tyr751 PDGFRβ. The method, then:
(b) In Vitro Phospho-Tyr751 PDGFRβ ELISA Assay
This assay uses a conventional EISA method to determine the ability of test compounds to inhibit phosphorylation of tyrosine in PDGFRβ.
An MG63 osteosarcoma cell line [American Type Culture Collection (ATCC) CCL 1427] was routinely maintained at 37° C. with 7.5% CO2 in Dulbecco's modified Eagle's growth medium (DMEM; Sigma-Aldrich; Catalogue No. D6546) containing 10% foetal calf serum (FCS; Sigma-Aldrich; Catalogue No. F7524) and 2 mM L-glutamine (Invitrogen Ltd., Paisley, UK; Catalogue No. 25030-024).
For the assay, the cells were detached from the culture flask using a trypsin/ethylenediaminetetraacetic acid (EDTA) mixture (Invitrogen Ltd.; Catalogue No. 15400-054) and resuspended in test media comprising DMEM without phenol red (Sigma-Aldrich; Catalogue No. D5921) containing 1% charcoal-stripped foetal calf serum (FCS) (Sigma-Aldrich; Catalogue No. F7524, stripped by incubation with dextran-coated activated charcoal at 55° C. for 30 minutes with continuous stirring followed by removal of the charcoal by centrifugation and filter sterilisation) and 2 mM L-glutamine (Invitrogen Ltd., Catalogue No. 25030-024) to give 6×10^4 cells per ml. Aliquots (100 μl) were seeded into each of the wells of columns 2-12 (excluding column 1) and rows B-G (excluding rows A and H) of a clear 96 well tissue culture plate (Corning Life Sciences, Koolhovenlaan, The Netherlands; Catalogue No. 3595) to give a density of about 6000 cells per well. Aliquots (100 μl) of culture media were placed in the outer wells to minimise edge effects. The cells were incubated overnight at 37° C. with 7.5% CO2 to allow the cells to adhere to the wells.
Test compounds were prepared as 10 mM stock solutions in DMSO and serially diluted as required with test media to give a range of concentrations. Aliquots (50 μl) of each compound concentration were added to the cells in each well. Control cells received a dilution of DMSO only. The cells were incubated for 90 minutes at 37° C. with 7.5% CO2.
The resultant cells were stimulated with PDGFBB using the following procedure. A lyophilised powder of PDGFBB, (Sigma-Aldrich; Catalogue No. P4306) was mixed with 4 mM aqueous hydrochloric acid containing 0.1% filter-sterilised BSA to provide a stock solution of 10 μg/ml of PDGFBB. A dilution of this stock solution into test medium provided a 200 ng/ml PDGFBB solution. Aliquots thereof (50 μl) were added to compound treated cells and to one set of control wells to give the “maximum” control. The “minimum” controls received media only. The cells were incubated at 37° C. with 7.5% CO2 for 5 minutes. […]

The subject of experiment [5] is dermatofibrosarcoma protruberans cell cultures. The note with it: Cancer Research, 2001, 61, 5778-5783; cited from earlier work.
Experiment [6] deals with PDGF receptor kinase. The note with it: Nature Reviews, 2002, 1, 493-502; Cancer Research, 1996, 56, 100-104; cited from earlier work.
The subject of experiment [7] is human glioblastoma lines U343 and U87. The note with it: injection into the brains of nude mice of U343 and U87; Cancer Research, 2000, 60, 5143-5150; cited from earlier work.

Molecules are shown by their SMILES.

T1 sequence (P35968 786-1356 limits assumed): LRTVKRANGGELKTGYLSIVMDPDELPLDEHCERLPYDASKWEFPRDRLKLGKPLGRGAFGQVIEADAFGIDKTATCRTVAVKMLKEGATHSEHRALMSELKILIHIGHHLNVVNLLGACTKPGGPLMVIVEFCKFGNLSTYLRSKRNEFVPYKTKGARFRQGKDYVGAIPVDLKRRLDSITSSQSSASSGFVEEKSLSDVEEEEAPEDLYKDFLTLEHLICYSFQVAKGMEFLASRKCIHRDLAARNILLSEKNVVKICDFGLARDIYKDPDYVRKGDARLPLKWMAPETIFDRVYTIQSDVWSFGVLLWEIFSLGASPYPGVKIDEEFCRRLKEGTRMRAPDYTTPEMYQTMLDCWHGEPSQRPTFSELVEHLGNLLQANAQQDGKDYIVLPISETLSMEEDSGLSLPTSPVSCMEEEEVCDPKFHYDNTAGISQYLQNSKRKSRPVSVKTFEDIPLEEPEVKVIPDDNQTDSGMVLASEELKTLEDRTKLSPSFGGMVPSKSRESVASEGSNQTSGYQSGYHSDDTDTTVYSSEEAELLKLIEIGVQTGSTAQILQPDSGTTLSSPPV
T3 sequence (P09619 554-1106 limits assumed): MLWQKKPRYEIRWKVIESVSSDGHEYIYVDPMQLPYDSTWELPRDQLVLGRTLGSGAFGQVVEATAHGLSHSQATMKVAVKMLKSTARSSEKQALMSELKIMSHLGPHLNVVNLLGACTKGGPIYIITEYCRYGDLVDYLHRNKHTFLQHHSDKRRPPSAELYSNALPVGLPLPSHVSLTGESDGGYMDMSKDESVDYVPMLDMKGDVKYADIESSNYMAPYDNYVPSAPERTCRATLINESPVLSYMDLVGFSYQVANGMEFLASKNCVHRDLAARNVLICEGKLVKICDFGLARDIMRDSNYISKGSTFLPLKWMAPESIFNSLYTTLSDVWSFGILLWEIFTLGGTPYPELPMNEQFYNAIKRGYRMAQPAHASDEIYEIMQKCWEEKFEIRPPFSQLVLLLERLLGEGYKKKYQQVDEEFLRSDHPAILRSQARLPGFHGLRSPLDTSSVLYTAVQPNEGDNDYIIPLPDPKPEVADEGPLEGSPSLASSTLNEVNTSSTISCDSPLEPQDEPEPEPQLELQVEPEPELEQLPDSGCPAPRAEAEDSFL
T4 sequence (P09619 33-1106): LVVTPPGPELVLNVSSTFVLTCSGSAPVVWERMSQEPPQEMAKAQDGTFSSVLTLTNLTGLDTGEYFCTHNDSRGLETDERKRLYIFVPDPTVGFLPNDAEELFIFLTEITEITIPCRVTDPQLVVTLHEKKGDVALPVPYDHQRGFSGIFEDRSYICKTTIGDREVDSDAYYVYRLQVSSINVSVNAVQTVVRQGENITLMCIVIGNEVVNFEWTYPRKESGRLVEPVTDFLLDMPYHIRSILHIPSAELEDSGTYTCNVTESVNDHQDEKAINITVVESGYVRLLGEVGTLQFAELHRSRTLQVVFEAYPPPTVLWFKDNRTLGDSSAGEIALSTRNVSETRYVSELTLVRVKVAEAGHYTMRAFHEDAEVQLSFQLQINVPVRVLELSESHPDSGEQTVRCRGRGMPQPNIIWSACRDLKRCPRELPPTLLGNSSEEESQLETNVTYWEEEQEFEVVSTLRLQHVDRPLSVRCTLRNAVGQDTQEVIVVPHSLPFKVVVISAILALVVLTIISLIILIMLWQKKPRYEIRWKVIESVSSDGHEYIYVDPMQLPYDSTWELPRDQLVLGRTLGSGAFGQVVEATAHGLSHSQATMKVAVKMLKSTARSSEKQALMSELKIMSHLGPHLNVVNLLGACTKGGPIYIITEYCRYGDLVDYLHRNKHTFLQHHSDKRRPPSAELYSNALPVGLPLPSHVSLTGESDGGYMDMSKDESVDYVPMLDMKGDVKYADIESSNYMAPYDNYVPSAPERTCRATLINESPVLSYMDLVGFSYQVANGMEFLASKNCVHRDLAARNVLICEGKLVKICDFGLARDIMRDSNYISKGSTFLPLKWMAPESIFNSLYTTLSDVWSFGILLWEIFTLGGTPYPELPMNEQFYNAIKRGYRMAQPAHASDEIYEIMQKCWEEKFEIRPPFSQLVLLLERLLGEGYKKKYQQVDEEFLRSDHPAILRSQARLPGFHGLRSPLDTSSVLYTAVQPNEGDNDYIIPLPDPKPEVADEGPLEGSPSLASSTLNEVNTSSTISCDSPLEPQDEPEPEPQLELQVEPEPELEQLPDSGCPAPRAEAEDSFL
T2 sequence (P16234 550-1089 limits assumed): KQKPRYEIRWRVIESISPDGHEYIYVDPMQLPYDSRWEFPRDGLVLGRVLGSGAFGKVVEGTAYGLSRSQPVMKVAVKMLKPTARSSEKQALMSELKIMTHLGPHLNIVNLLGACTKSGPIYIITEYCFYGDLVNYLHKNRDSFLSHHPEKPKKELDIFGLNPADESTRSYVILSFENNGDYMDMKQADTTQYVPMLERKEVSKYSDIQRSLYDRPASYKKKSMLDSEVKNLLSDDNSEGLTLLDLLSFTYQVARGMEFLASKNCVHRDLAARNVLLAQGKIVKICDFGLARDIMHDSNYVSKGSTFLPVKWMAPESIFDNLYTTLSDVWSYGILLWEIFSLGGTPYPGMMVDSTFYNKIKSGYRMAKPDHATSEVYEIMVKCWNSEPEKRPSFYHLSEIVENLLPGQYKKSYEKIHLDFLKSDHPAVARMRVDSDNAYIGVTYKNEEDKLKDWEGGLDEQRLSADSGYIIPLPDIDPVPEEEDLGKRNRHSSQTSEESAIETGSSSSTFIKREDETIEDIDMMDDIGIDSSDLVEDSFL

In the case of `COc1cccc(NC(=O)Cc2ccc(Oc3ncnc4cc(OC)c(OC)cc34)cc2)c1` [Example 1, N-(3-methoxyphenyl)-2-[4-(6,7-dimethoxyquinazolin-4-yloxy)phenyl]acetamide], the IC50 was around 0.001 µM in experiment [1], around 0.25 µM in experiment [2], around 0.06 µM in experiment [3] and around 0.001 µM in experiment [4].

On to `COc1cc2ncnc(Oc3ccc(CC(=O)Nc4ccc(N(C)C)cn4)cc3)c2cc1OC` [Example 6, N-(5-dimethylaminopyridin-2-yl)-2-[4-(6,7-dimethoxyquinazolin-4-yloxy)phenyl]acetamide], for which the half-maximal inhibitory concentration (IC50) in experiment [1] is around 0.01 µM; in experiment [2], around 0.4 µM; in experiment [3], around 0.3 µM; in experiment [4] it was around 0.0005 µM.

For the molecule `COc1cc2ncnc(Oc3ccc(CC(=O)Nc4nc(C)cs4)cc3)c2cc1OC` [Compound 17 within Example 9, N-(4-methylthiazol-2-yl)-2-[4-(6,7-dimethoxyquinazolin-4-yloxy)phenyl]acetamide], the IC50 is around 0.3 µM in experiment [2], around 0.1 µM in experiment [3] and around 0.002 µM in experiment [4].

As for `COc1cc2ncnc(Oc3ccc(CC(=O)Nc4cccc(N(C)C)n4)cc3)c2cc1OC` [Compound 4 within Example 10, N-(6-dimethylaminopyridin-2-yl)-2-[4-(6,7-dimethoxyquinazolin-4-yloxy)phenyl]acetamide], the 50% inhibitory concentration (IC50) in experiment [1] was around 0.01 µM; in experiment [4], around 0.001 µM.

As for `Cc1ccc(NC(=O)c2ccc(CN3CCN(C)CC3)cc2)cc1Nc1nccc(-c2cccnc2)n1` [imatinib], the “in vivo growth of dermatofibrosarcoma protruberans cell cultures” value in experiment [5] is “inhibits the in vivo growth”. Besides, the “PDGF receptor kinase activity” value in experiment [6] is “inhibit PDGF receptor kinase activity”. The “growth of glioblastoma tumours” value in experiment [7] is on record as “inhibits the growth”.

(Values after patent US8153643B2, “Quinazoline derivatives” (AstraZeneca AB, priority 2004, dated 2012).)
